Reference: ChEMBL document CHEMBL3885881, “DrugMatrix”

Organism: Rattus norvegicus
Assay: DrugMatrix - Regimen: Daily Repeat
Format: toxicity, organism-based, Sprague-Dawley
Set-up: regimen Daily Repeat, gender Male, age 6-8 weeks
Details: in vivo, po, route oral GAVAGE, […]; for ABSOLUTE BASOPHIL / ABSOLUTE EOSINOPHIL / ABSOLUTE LYMPHOCYTE / ABSOLUTE SEGMENTED NEUTROPHIL / BASOPHIL / EOSINOPHIL / ERYTHROCYTE COUNT / HEMATOCRIT / HEMOGLOBIN / LEUKOCYTE COUNT / LYMPHOCYTE / MEAN CORPUSCULAR HEMOGLOBIN / MEAN CORPUSCULAR HEMOGLOBIN CONCENTRATION / MEAN CORPUSCULAR VOLUME / MONOCYTE / NEUTROPHIL / NUCLEATED RED BLOOD CELLS / PLATELET COUNT: tissue Blood; for ALANINE AMINOTRANSFERASE / ALBUMIN / ALKALINE PHOSPHATASE / ASPARTATE AMINOTRANSFERASE / BLOOD UREA NITROGEN / CARBON DIOXIDE / CHLORIDE / CHOLESTEROL / CREATINE PHOSPHOKINASE / CREATININE / GLUCOSE / LACTATE DEHYDROGENASE / LIPASE / PHOSPHORUS / POTASSIUM / SODIUM / TOTAL BILIRUBIN / TOTAL PROTEIN / URIC ACID: tissue Plasma
[1] = 0 mg/kg, 72 h, dose level Control, time 3 day
[2] = 0 mg/kg, 120 h, dose level Control, time 5 day
[3] = 15 mg/kg, 72 h, dose level Low, time 3 day

For CCC(C)(C)C(=O)O[C@H]1C[C@@H](C)C=C2C=C[C@H](C)[C@H](CC[C@@H]3C[C@@H](O)CC(=O)O3)[C@H]21 [SIMVASTATIN], the “ABSOLUTE BASOPHIL” value [1] was 0 CELLS/uL, the “ABSOLUTE EOSINOPHIL” value [1] was 14 CELLS/uL and the “ABSOLUTE LYMPHOCYTE” value [1] was 11144.67 CELLS/uL. For the same compound, the “ABSOLUTE SEGMENTED NEUTROPHIL” value [1] was 535.5 CELLS/uL, the BASOPHIL [1] was 0% and the EOSINOPHIL [1] was 0.17%. The “ERYTHROCYTE COUNT” value [1] was 5.08 x10E6/uL, the HEMATOCRIT [1] was 32.32% and the HEMOGLOBIN [1] was 12.87 G/DL. For the same compound, the “LEUKOCYTE COUNT” value [1] was 11.72 x10E3/uL, the LYMPHOCYTE [1] was 94.67% and the “MEAN CORPUSCULAR HEMOGLOBIN” value [1] was 25.37 pg. For the same compound, the “MEAN CORPUSCULAR HEMOGLOBIN CONCENTRATION” value [1] was 39.85 G/DL, the “MEAN CORPUSCULAR VOLUME” value [1] was 63.58 fL and the MONOCYTE [1] was 0.17%. For the same compound, the NEUTROPHIL [1] was 5%, the “NUCLEATED RED BLOOD CELLS” value [1] was 0 /100WBC and the “PLATELET COUNT” value [1] was 1084 x10E3/uL. For the same compound, the “ALANINE AMINOTRANSFERASE” value [1] was 67.5 u/L, the ALBUMIN [1] was 4.02 G/DL and the “ALKALINE PHOSPHATASE” value [1] was 374.17 u/L. The “ASPARTATE AMINOTRANSFERASE” value [1] was 83.5 u/L, the “BLOOD UREA NITROGEN” value [1] was 14.5 mg/dL and the “CARBON DIOXIDE” value [1] was 30 mmol/L. For the same compound, the CHLORIDE [1] was 100.5 MEQ/L, the CHOLESTEROL [1] was 71.33 mg/dL and the “CREATINE PHOSPHOKINASE” value [1] was 268.33 u/L. The CREATININE [1] was 0.16 mg/dL, the GLUCOSE [1] was 170.5 mg/dL and the “LACTATE DEHYDROGENASE” value [1] was 81.17 u/L. For the same compound, the LIPASE [1] was 16.67 u/L, the PHOSPHORUS [1] was 10.07 mg/dL and the POTASSIUM [1] was 5.03 MEQ/L. For the same compound, the SODIUM [1] was 142.92 MEQ/L, the “TOTAL BILIRUBIN” value [1] was 0.17 mg/dL and the “TOTAL PROTEIN” value [1] was 5.63 G/DL. The “URIC ACID” value [1] was 0.5 mg/dL, the “ABSOLUTE BASOPHIL” value [2] was 0 CELLS/uL and the “ABSOLUTE EOSINOPHIL” value [2] was 37.5 CELLS/uL. The “ABSOLUTE LYMPHOCYTE” value [2] was 8049.5 CELLS/uL, the “ABSOLUTE SEGMENTED NEUTROPHIL” value [2] was 646.83 CELLS/uL and the BASOPHIL [2] was 0%. For the same compound, the EOSINOPHIL [2] was 0.5%, the “ERYTHROCYTE COUNT” value [2] was 5.36 x10E6/uL and the HEMATOCRIT [2] was 33.9%. For the same compound, the HEMOGLOBIN [2] was 13.02 G/DL, the “LEUKOCYTE COUNT” value [2] was 8.82 x10E3/uL and the LYMPHOCYTE [2] was 90.17%. The “MEAN CORPUSCULAR HEMOGLOBIN” value [2] was 24.32 pg, the “MEAN CORPUSCULAR HEMOGLOBIN CONCENTRATION” value [2] was 38.42 G/DL and the “MEAN CORPUSCULAR VOLUME” value [2] was 63.32 fL. For the same compound, the MONOCYTE [2] was 1.17%, the NEUTROPHIL [2] was 8.17% and the “NUCLEATED RED BLOOD CELLS” value [2] was 0.17 /100WBC. The “PLATELET COUNT” value [2] was 1231.5 x10E3/uL, the “ALANINE AMINOTRANSFERASE” value [2] was 62 u/L and the ALBUMIN [2] was 3.97 G/DL. For the same compound, the “ALKALINE PHOSPHATASE” value [2] was 303.67 u/L, the “ASPARTATE AMINOTRANSFERASE” value [2] was 84.5 u/L and the “BLOOD UREA NITROGEN” value [2] was 14.83 mg/dL. The “CARBON DIOXIDE” value [2] was 31.83 mmol/L, the CHLORIDE [2] was 97 MEQ/L and the CHOLESTEROL [2] was 68.83 mg/dL. For the same compound, the “CREATINE PHOSPHOKINASE” value [2] was 411.33 u/L, the CREATININE [2] was 0.16 mg/dL and the GLUCOSE [2] was 170.17 mg/dL. The “LACTATE DEHYDROGENASE” value [2] was 88.5 u/L, the LIPASE [2] was 9.5 u/L and the PHOSPHORUS [2] was 9.98 mg/dL. For the same compound, the POTASSIUM [2] was 5.72 MEQ/L, the SODIUM [2] was 141.62 MEQ/L and the “TOTAL BILIRUBIN” value [2] was 0.1 mg/dL. The “TOTAL PROTEIN” value [2] was 5.67 G/DL, the “URIC ACID” value [2] was 0.52 mg/dL and the “ABSOLUTE BASOPHIL” value [3] was 0 CELLS/uL. The “ABSOLUTE EOSINOPHIL” value [3] was 0 CELLS/uL, the “ABSOLUTE LYMPHOCYTE” value [3] was 9235.67 CELLS/uL and the “ABSOLUTE SEGMENTED NEUTROPHIL” value [3] was 962.33 CELLS/uL. For the same compound, the BASOPHIL [3] was 0%, the EOSINOPHIL [3] was 0% and the “ERYTHROCYTE COUNT” value [3] was 5.23 x10E6/uL. The HEMATOCRIT [3] was 32.6%, the HEMOGLOBIN [3] was 12.9 G/DL and the “LEUKOCYTE COUNT” value [3] was 10.33 x10E3/uL. The LYMPHOCYTE [3] was 89.33%, the “MEAN CORPUSCULAR HEMOGLOBIN” value [3] was 24.7 pg and the “MEAN CORPUSCULAR HEMOGLOBIN CONCENTRATION” value [3] was 39.57 G/DL. The “MEAN CORPUSCULAR VOLUME” value [3] was 62.4 fL, the MONOCYTE [3] was 1.33% and the NEUTROPHIL [3] was 9.33%. For the same compound, the “NUCLEATED RED BLOOD CELLS” value [3] was 0 /100WBC, the “PLATELET COUNT” value [3] was 1186.33 x10E3/uL and the “ALANINE AMINOTRANSFERASE” value [3] was 75 u/L. The ALBUMIN [3] was 4.07 G/DL, the “ALKALINE PHOSPHATASE” value [3] was 310.67 u/L and the “ASPARTATE AMINOTRANSFERASE” value [3] was 85.33 u/L. For the same compound, the “BLOOD UREA NITROGEN” value [3] was 14 mg/dL, the “CARBON DIOXIDE” value [3] was 29.33 mmol/L and the CHLORIDE [3] was 103 MEQ/L. The CHOLESTEROL [3] was 68.67 mg/dL, the “CREATINE PHOSPHOKINASE” value [3] was 229.33 u/L and the CREATININE [3] was 0.12 mg/dL. The GLUCOSE [3] was 170.33 mg/dL, the “LACTATE DEHYDROGENASE” value [3] was 76.33 u/L and the LIPASE [3] was 10 u/L. For the same compound, the PHOSPHORUS [3] was 9.87 mg/dL, the POTASSIUM [3] was 5.16 MEQ/L and the SODIUM [3] was 146.93 MEQ/L. For the same compound, the “TOTAL BILIRUBIN” value [3] was 0.13 mg/dL, the “TOTAL PROTEIN” value [3] was 5.67 G/DL and the “URIC ACID” value [3] was 0.77 mg/dL.
